The record followed here is ChEMBL document CHEMBL5465560, “Selectivity Literature for EUbOPEN Chemogenomic Library” (2024).

Test [1] has as its target STE20/SPS1-related proline-alanine-rich protein kinase (Homo sapiens) (UniProt Q9UEW8). Nature of the test: Selectivity interaction (Kinase panel (KiNativ target engagement assay in Jurkat cells)) EUB0001635a STK39. The format is cell-based. The settings on record: Selectivity number of off-targets 0.0, Selectivity number of targets 233.0, Source Knowledge https://www.sciencedirect.com/science/article/pii/S2451945619300674?via%3Dihub, at 1 µM.

The target in test [2] is 5'-AMP-activated protein kinase catalytic subunit alpha-2 (Homo sapiens) (UniProt P54646). Briefly: Selectivity interaction (Ambit KINOMEscan and KiNATiv profiling in Jurkat cells) EUB0000090b PRKAA2. The format is cell-based. The settings on record: at 1 µM.
Chain of 5'-AMP-activated protein kinase catalytic subunit alpha-2 (Homo sapiens) (P54646 whole entry, looked up): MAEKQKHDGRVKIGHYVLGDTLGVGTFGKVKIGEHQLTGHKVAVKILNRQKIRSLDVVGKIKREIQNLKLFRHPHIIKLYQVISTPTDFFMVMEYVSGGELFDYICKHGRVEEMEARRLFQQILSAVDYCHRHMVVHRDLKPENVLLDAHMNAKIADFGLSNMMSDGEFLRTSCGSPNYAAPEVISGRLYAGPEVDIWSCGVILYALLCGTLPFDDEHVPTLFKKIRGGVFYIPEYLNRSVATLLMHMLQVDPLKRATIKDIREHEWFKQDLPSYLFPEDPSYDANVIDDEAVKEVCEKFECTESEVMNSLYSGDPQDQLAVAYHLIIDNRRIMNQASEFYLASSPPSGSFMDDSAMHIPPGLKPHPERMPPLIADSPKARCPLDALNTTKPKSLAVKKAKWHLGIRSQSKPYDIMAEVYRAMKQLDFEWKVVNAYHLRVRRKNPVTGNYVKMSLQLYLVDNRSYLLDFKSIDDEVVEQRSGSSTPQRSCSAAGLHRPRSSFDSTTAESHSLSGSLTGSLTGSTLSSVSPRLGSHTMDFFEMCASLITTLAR
For test [3], the target named is Transient receptor potential cation channel subfamily M member 6 (Homo sapiens) (UniProt Q9BX84). Briefly: Selectivity interaction (KinomeScan (DiscoverX)) EUB0000607a TRPM6. To be noted: at 10 µM.
Chain of Transient receptor potential cation channel subfamily M member 6 (Homo sapiens) (Q9BX84 whole entry): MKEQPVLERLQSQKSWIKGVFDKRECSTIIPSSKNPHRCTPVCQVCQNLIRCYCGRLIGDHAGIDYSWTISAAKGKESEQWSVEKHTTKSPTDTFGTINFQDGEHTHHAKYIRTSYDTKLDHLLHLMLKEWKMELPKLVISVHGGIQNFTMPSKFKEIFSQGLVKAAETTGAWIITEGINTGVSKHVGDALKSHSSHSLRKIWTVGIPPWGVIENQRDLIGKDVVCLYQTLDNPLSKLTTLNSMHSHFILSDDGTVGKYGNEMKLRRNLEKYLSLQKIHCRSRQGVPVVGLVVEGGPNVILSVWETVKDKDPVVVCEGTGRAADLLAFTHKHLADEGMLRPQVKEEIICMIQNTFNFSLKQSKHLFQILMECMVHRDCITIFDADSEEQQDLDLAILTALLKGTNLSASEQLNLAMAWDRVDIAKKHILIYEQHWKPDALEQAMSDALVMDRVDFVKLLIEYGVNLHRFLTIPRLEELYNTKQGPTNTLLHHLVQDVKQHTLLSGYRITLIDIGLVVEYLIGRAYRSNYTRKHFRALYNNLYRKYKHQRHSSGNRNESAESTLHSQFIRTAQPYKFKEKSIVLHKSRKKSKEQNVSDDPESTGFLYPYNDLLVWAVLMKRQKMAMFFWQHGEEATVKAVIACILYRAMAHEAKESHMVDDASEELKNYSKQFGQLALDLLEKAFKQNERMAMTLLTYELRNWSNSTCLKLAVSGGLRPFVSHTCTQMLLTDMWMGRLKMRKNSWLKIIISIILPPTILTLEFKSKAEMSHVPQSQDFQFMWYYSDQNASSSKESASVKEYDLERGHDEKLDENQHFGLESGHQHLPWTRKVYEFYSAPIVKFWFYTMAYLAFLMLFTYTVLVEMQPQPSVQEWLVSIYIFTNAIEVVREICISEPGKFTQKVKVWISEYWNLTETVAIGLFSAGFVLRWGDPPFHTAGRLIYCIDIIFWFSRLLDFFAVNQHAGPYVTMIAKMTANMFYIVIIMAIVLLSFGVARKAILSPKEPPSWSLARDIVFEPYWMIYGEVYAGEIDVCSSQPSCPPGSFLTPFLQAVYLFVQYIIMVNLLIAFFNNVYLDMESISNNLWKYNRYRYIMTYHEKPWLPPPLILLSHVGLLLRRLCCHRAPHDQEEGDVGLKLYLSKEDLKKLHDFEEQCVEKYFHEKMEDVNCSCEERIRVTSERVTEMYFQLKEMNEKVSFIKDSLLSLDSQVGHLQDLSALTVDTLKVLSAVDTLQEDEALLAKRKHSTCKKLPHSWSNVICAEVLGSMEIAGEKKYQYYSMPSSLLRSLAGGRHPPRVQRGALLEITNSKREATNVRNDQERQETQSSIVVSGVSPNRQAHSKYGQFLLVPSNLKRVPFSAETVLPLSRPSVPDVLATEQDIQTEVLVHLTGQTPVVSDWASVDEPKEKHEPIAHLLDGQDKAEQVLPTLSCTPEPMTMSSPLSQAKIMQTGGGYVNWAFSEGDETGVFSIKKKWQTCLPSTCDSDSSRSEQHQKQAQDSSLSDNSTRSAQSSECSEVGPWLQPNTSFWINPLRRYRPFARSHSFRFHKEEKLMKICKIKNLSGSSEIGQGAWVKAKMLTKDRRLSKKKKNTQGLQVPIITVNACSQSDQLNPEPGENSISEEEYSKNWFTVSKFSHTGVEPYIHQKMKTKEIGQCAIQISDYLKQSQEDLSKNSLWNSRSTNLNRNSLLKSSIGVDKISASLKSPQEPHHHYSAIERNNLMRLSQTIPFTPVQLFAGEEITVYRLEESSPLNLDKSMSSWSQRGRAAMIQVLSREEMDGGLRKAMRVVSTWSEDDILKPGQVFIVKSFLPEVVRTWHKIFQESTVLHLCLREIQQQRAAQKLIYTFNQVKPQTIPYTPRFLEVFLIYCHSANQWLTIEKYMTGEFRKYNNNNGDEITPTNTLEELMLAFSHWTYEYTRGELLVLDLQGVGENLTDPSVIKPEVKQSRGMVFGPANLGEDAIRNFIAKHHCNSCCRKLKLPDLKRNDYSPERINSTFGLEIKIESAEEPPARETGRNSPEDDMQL
Test [4] deals with Mitogen-activated protein kinase 8 (Homo sapiens, UniProt P45983). Nature of the test: Selectivity interaction (SelectScreen profiling (Invitrogen)) EUB0000607a MAPK8. The settings on record: at 2 µM.
Chain of Mitogen-activated protein kinase 8 (P45983 whole entry): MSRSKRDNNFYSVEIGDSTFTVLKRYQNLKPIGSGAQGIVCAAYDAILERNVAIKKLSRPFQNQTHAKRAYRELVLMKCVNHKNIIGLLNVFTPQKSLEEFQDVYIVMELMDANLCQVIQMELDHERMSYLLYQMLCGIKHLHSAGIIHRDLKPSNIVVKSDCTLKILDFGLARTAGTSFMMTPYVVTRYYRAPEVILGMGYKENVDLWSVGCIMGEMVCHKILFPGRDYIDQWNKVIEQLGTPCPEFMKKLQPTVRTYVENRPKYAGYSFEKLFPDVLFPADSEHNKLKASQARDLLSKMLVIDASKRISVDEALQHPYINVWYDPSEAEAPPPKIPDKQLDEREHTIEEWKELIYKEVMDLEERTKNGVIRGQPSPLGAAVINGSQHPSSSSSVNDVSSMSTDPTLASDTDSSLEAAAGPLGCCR
Test [5] addresses T1, Serine/threonine-protein kinase RIO3 (Homo sapiens) (UniProt O14730).
T1 sequence (whole entry): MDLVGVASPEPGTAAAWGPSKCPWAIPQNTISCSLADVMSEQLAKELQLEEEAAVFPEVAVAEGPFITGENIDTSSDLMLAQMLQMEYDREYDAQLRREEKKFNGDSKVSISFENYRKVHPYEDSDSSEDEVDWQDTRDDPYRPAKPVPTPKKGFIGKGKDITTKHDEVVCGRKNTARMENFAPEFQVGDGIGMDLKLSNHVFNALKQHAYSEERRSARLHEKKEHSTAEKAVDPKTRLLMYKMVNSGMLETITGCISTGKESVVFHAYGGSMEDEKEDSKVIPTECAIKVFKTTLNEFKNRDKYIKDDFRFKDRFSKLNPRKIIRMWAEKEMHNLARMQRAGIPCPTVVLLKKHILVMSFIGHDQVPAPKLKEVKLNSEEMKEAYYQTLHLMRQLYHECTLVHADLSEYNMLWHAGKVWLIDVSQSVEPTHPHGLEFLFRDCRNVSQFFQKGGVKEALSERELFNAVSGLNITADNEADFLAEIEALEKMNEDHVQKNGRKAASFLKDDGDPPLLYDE
The settings on record: at 10 µM.

For test [6], the target named is T2, Aurora kinase C (Homo sapiens) (UniProt Q9UQB9).
T2 sequence (whole entry): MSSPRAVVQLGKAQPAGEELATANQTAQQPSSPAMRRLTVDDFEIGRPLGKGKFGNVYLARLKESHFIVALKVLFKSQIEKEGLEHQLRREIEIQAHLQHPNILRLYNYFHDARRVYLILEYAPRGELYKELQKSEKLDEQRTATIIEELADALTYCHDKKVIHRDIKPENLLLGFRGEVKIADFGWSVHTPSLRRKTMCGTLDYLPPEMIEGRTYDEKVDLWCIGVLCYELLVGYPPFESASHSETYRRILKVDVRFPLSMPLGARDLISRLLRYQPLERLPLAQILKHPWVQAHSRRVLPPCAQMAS
Briefly: Selectivity interaction (KinomeScan (DiscoverX)) EUB0001079a AURKC. The settings on record: at 1 µM.

Test [7] deals with T3, Serine/threonine-protein kinase ICK (Homo sapiens) (UniProt Q9UPZ9).
T3 sequence (whole entry): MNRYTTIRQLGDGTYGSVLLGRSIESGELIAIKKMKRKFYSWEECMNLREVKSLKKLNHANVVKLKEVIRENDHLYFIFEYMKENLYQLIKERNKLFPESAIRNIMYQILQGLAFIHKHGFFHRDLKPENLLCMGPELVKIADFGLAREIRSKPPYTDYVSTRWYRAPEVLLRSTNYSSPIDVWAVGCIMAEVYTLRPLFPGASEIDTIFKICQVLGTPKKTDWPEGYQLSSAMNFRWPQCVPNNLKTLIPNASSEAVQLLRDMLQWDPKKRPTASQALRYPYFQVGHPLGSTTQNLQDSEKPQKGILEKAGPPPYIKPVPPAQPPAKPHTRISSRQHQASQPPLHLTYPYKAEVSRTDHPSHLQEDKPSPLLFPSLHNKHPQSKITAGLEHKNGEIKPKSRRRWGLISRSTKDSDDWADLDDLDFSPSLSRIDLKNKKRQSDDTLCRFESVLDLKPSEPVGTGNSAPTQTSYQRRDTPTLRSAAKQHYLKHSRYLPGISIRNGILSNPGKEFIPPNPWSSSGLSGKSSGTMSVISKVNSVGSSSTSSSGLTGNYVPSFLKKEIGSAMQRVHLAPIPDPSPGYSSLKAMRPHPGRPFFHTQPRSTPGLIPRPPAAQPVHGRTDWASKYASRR
Nature of the test: Selectivity interaction (KinomeScan (DiscoverX)) EUB0001619a ICK. To be noted: at 1 µM.

Test [8] has as its target Platelet-derived growth factor receptor alpha (Homo sapiens, UniProt P16234). Briefly: Selectivity interaction (Kinase panel (Invitrogen)) EUB0000639a PDGFRA. The settings on record: at 200 nM.
In test [9] the target is T4, Serine/threonine-protein kinase D3 (Homo sapiens) (UniProt O94806).
T4 sequence (whole entry): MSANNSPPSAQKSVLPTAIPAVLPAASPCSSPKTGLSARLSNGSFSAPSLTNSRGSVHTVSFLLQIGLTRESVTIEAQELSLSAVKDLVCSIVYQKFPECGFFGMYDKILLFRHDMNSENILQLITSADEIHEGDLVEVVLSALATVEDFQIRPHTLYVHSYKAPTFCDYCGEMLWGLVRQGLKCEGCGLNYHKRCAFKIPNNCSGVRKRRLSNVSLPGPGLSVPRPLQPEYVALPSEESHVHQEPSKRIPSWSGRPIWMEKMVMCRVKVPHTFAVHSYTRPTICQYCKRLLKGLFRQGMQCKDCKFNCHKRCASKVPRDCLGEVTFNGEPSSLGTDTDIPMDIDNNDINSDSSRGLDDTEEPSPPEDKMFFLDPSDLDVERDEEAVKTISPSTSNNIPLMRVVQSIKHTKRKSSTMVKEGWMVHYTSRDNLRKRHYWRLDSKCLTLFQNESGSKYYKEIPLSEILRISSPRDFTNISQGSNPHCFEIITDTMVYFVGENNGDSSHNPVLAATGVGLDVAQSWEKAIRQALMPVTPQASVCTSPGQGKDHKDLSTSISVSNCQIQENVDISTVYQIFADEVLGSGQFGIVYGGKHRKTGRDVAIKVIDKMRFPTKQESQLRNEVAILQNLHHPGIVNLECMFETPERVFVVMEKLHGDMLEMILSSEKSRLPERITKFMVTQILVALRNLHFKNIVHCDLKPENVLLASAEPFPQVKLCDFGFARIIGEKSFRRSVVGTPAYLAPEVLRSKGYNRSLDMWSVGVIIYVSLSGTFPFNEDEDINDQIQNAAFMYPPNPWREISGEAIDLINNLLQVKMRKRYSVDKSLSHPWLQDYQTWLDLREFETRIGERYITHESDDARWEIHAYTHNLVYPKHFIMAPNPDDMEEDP
Nature of the test: Selectivity interaction (KinomeScan (DiscoverX)) EUB0000092b PRKD3. The settings on record: at 10 µM.

The target of test [10] is Serine/threonine-protein kinase MRCK alpha (Homo sapiens) (UniProt Q5VT25). Briefly: Selectivity interaction (KinomeScan (DiscoverX)) EUB0000618a CDC42BPA. To be noted: at 10 µM.
Chain of Serine/threonine-protein kinase MRCK alpha (Homo sapiens) (Q5VT25 whole entry): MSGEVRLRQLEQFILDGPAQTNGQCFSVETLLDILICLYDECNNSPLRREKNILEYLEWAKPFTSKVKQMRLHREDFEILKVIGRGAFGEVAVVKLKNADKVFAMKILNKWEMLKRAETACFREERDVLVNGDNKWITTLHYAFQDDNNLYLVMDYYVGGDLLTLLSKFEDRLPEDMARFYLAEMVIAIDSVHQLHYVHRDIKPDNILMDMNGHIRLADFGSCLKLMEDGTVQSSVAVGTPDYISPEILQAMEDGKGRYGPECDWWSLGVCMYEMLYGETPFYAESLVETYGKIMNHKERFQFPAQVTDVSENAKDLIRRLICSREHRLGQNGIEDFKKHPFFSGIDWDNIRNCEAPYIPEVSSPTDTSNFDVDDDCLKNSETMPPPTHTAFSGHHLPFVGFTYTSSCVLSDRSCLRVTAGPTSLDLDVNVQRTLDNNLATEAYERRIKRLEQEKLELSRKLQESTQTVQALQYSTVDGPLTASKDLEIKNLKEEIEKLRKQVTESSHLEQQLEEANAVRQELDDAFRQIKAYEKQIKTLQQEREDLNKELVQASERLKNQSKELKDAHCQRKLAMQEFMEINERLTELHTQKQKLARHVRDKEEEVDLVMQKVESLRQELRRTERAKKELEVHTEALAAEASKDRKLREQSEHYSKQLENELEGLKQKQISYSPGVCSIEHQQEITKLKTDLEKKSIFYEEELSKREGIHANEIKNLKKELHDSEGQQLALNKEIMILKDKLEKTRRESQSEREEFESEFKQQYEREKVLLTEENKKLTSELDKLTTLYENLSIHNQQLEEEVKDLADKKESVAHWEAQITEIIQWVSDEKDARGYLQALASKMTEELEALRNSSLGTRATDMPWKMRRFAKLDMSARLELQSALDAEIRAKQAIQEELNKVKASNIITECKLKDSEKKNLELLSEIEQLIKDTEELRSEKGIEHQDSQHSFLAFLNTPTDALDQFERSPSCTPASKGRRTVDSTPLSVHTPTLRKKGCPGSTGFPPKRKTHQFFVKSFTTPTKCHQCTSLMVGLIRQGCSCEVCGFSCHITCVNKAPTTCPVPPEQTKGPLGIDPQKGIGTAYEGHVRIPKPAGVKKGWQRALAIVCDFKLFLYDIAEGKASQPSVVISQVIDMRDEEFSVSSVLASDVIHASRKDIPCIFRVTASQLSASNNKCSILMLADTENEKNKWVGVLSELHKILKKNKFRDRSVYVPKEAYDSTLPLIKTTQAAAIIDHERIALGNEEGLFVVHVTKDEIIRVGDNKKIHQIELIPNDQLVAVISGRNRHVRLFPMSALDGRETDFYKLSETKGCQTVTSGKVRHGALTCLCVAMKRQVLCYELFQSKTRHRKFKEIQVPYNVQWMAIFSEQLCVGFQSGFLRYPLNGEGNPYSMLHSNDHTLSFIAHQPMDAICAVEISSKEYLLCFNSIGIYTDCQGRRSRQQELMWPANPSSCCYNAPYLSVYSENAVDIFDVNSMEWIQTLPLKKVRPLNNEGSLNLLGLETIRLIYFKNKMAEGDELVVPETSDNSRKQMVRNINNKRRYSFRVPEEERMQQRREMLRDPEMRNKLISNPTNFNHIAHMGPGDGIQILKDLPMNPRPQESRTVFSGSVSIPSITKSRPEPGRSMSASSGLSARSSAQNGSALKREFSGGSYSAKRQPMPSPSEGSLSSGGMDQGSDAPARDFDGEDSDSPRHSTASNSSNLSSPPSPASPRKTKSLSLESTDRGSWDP

`C=CC(=O)Nc1ccc(C(=O)Nc2[nH]nc3c2CN(C(=O)N[C@H](CN(C)C)c2ccccc2)C3(C)C)cc1` showed a % of engagement in [1] of 11.5%.

Regarding `CN(C)C/C=C/C(=O)Nc1ccc(C(=O)N2CCCC(Nc3ncc(Cl)c(-c4c[nH]c5ccccc45)n3)C2)cc1` (stereo not given), in [2], the % of control is 98%. For the compound `CNC(=O)Nc1ccc(-c2nc(N3CC4CCC(C3)O4)c3cnn(C4CCC5(CC4)OCCO5)c3n2)cc1`, in test [3], the % of control came out at 100%. For the same compound, the % of inhibition in [4] was 12%.

`Cc1cc([C@@H](C)Nc2ccccc2C(=O)O)c2nc(N3CCOCC3)cc(=O)n2c1` [AZD-6482]: the % of control in test [5] was 100%. Compound `Nc1cnc(N2CCc3cc(S(=O)(=O)Nc4c(F)cc(Cl)cc4F)cc(N4CCCC4=O)c32)nc1` [TP-020n] gave a % of control in test [6] of 100%.

In test [7], `N#Cc1cccc(-c2c[nH]c3ncnc(N4CCOCC4)c23)c1` yielded a % of control of 96%. Take `CC[C@@H]1[C@H](F)C(=O)N[C@@H]1COc1nccc2cc(C(N)=O)c(OC)cc12` [ZIMLOVISERTIB]: the % of inhibition in [8] was -1.69%. `CCC(=O)N1CCN(c2ccc(-n3c(=O)ccc4cnc5ccc(-c6cnc7ccccc7c6)cc5c43)cc2C(F)(F)F)CC1` returned a % of control in [9] of 100%. Regarding `O[C@H]1CC[C@H](Nc2ncc3nc(Nc4c(F)cc(F)cc4F)n([C@H]4CCOC4)c3n2)CC1`, the % of control in [10] stood at 100%.
